Here are results for 15 molecules from patent US11878965B2, “Inhibitors of peptidylarginine deiminases” (Gilead Sciences, Inc., priority 2020, dated 2024).

One assay deals with human PAD4 (Homo sapiens (Human), UniProt Q9UM07). Put plainly: In Vitro PAD4 BAEE Biochemical Assay. The conditions noted are these: human PAD4, BAEE substrate; 5 nM PAD4, 2 mM calcium chloride, 3 mM BAEE; geometric mean of multiple experiments. The essentials: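 Deimination of BAEE substrate (3 mM) measured as ammonia via o-phthalaldehyde–DTT isoindole fluorescence, 405/535 nm. Tag-free bacterially expressed human PAD4 at 5 nM with 2 mM calcium chloride, pH 7.6 MOPS buffer, 30 min compound preincubation then 2 h reaction, both at 25 °C.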
Sequence of human PAD4 (Q9UM07 2-663): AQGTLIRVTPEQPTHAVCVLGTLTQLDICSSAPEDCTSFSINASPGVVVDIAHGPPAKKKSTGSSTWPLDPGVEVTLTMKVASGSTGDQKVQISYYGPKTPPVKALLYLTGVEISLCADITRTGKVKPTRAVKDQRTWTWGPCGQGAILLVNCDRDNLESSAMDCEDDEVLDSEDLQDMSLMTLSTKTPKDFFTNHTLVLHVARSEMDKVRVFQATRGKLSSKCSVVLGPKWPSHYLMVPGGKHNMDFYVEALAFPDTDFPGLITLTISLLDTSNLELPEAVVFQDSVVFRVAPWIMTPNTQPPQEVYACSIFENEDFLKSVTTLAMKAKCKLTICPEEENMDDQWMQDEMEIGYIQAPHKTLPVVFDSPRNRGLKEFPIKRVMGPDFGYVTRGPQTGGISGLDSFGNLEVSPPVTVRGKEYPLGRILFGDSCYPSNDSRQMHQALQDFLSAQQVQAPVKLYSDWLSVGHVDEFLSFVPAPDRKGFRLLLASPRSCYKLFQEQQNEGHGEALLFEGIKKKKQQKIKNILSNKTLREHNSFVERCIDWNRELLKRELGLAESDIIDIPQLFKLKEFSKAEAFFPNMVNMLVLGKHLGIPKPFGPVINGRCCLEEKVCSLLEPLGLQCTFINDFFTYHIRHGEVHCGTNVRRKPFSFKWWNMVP
For the molecule `COc1cc(C(=O)N2CCC[C@@H](N)C2)cc2nc(-c3cc4ccc(N5CCCN(C)S5(=O)=O)nc4n3CC3CC3)n(C)c12` [Example 106, (R)-(3-aminopiperidin-1-yl)(2-(1-(cyclopropylmethyl)-6-(6-methyl-1,1-dioxido-1,2,6-thiadiazinan-2-yl)-1H-pyrrolo[2,3-b]pyridin-2-yl)-7-methoxy-1-methyl-1H-benzo[d]imidazol-5-yl)methanone], the concentration for half-maximal inhibition (IC50) came out at 434 nM. The same measure, in the same setting: next, `COc1cc(C(=O)N2CCC[C@@H](N)C2)cc2nc(-c3cc4ccc([C@@H](C)NC(=O)c5ccccc5)nc4n3CC3CC3)n(C)c12` [Example 124, N-((R)-1-(2-(5-((R)-3-aminopiperidine-1-carbonyl)-7-methoxy-1-methyl-1H-benzo[d]imidazol-2-yl)-1-(cyclopropylmethyl)-1H-pyrrolo[2,3-b]pyridin-6-yl)ethyl)benzamide]: 54.6 nM. For the molecule `CCCCS(=O)(=O)N(C)c1ccc2cc(-c3nc4cc(C(=O)N5CCC[C@@H](N)C5)cc(OC)c4n3C)n(CC3CC3)c2n1` [Example 14, (R)-N-(2-(5-(3-aminopiperidine-1-carbonyl)-7-methoxy-1-methyl-1H-benzo[d]imidazol-2-yl)-1-(cyclopropylmethyl)-1H-pyrrolo [2,3-b]pyridin-6-yl)-N-methylbutane-1-sulfonamide], the half-inhibitory concentration (IC50) came to 249 nM. For `COc1cc(C(=O)N2CC3(CCCCN3)C2)cc2nc(-c3cc4ccc(N(C(F)F)S(C)(=O)=O)nc4n3CC3CC3)n(C)c12` [Example 76, N-(1-(cyclopropylmethyl)-2-(7-methoxy-1-methyl-5-(2,5-diazaspiro[3.5]nonane-2-carbonyl)-1H-benzo[d]imidazol-2-yl)-1H-pyrrolo[2,3-b]pyridin-6-yl)-N-(difluoromethyl) methanesulfonamide], the IC50 came to 50000 nM.

`COc1cc(C(=O)N2[C@H]3CC[C@@H]2[C@H](N)C3)cc2nc(-c3cc4ccc([C@@H](C)NC(=O)C5(OC)CC5)cc4n3CC3CC3)n(C3CC3)c12` [Example 147, N-((R)-1-(2-(5-((1R,2R,4S)-2-amino-7-azabicyclo[2.2.1]heptane-7-carbonyl)-1-cyclopropyl-7-methoxy-1H-benzo[d]imidazol-2-yl)-1-(cyclopropylmethyl)-1H-indol-6-yl)ethyl)-1-methoxycyclopropane-1-carboxamide]: the IC50 worked out at 78.9 nM. Take `COc1cc(C(=O)N2C[C@H](N)CC[C@@H]2C)cc2nc(-c3cc4ccc(N(C(F)F)S(C)(=O)=O)nc4n3CC3CC3)n(C3CC3)c12` [Example 42, N-(2-(5-((2S,5R)-5-amino-2-methylpiperidine-1-carbonyl)-1-cyclopropyl-7-methoxy-1H-benzo[d]imidazol-2-yl)-1-(cyclopropylmethyl)-1H-pyrrolo [2,3-b]pyridin-6-yl)-N-(difluoromethyl) methanesulfonamide]: the IC50 came to 221 nM. Regarding `COc1cc(C(=O)N2C[C@H](N)CC[C@@H]2C)cc2nc(-c3cc4ccc(N5CCCC5=O)nc4n3CC3CC3)n(C)c12` [Example 279, 1-(2-(5-((2S,5R)-5-amino-2-methylpiperidine-1-carbonyl)-7-methoxy-1-methyl-1H-benzo[d]imidazol-2-yl)-1-(cyclopropylmethyl)-1H-pyrrolo[2,3-b]pyridin-6-yl)pyrrolidin-2-one], the IC50 amounted to 1180 nM. As to `CCc1nc(C)c(-c2ncccc2-c2ccc3cc(-c4nc5cc(C(=O)N6CCC[C@@H](N)C6)cc(OC)c5n4C)n(CC4CC4)c3n2)s1` [Example 271, (R)-(3-aminopiperidin-1-yl)(2-(1-(cyclopropylmethyl)-6-(2-(2-ethyl-4-methylthiazol-5-yl)pyridin-3-yl)-1H-pyrrolo[2,3-b]pyridin-2-yl)-7-methoxy-1-methyl-1H-benzo[d]imidazol-5-yl)methanone], the IC50 is 134 nM. Same read-out and setting: in the case of `COc1cc(C(=O)N2CC3(CCCN3)C2)cc2nc(-c3cc4ccc(N(C(F)F)S(C)(=O)=O)nc4n3CC3CC3)n(C)c12` [Example 77, N-(1-(cyclopropylmethyl)-2-(7-methoxy-1-methyl-5-(2,5-diazaspiro[3.4]octane-2-carbonyl)-1H-benzo[d]imidazol-2-yl)-1H-pyrrolo[2,3-b]pyridin-6-yl)-N-(difluoromethyl) methanesulfonamide] it was 50000 nM; in that of `COc1cc(C(=O)N2C[C@H](N)CCN2C)cc2nc(-c3cc4ccc([C@@H](C)NC(=O)C56CC(C5)C6)nc4n3CC3CC3)n(C)c12` [Example 185, N-((R)-1-(2-(5-((R)-5-amino-2-methylhexahydropyridazine-1-carbonyl)-7-methoxy-1-methyl-1H-benzo[d]imidazol-2-yl)-1-(cyclopropylmethyl)-1H-pyrrolo[2,3-b]pyridin-6-yl)ethyl)bicyclo[1.1.1]pentane-1-carboxamide], 82.1 nM; in that of `COc1cc(C(=O)N2[C@@H]3CC[C@@H](N)[C@H]2CC3)cc2nc(-c3cc4ccc(N(C(C)C)S(C)(=O)=O)nc4n3CC3CC3)n(C)c12` [Example 85, N-(2-(5-((1R,2R,5R)-2-amino-8-azabicyclo[3.2.1]octane-8-carbonyl)-7-methoxy-1-methyl-1H-benzo[d]imidazol-2-yl)-1-(cyclopropylmethyl)-1H-pyrrolo [2,3-b]pyridin-6-yl)-N-isopropyl-methanesulfonamide], 69.8 nM. Turning to `COc1cc(C(=O)N2[C@H]3CC[C@@H]2[C@H](N)C3)cc2nc(-c3cc4ccc([C@@H](C)NC(=O)c5ccccc5C(F)F)nc4n3CC3CC3)n(C)c12` [Example 203, N-((R)-1-(2-(5-((1R,2R,4S)-2-amino-7-azabicyclo[2.2.1]heptane-7-carbonyl)-7-methoxy-1-methyl-1H-benzo[d]imidazol-2-yl)-1-(cyclopropylmethyl)-1H-pyrrolo[2,3-b]pyridin-6-yl)ethyl)-2-(difluoromethyl)benzamide], the IC50 came out at 155 nM. Regarding `COc1cc(C(=O)N2C[C@H](N)CCN2C)cc2nc(-c3cc4ccc([C@@H](C)NC(=O)c5c(F)cccc5C(F)(F)F)nc4n3CC3CC3)n(C)c12` [Example 198, N-((R)-1-(2-(5-((R)-5-amino-2-methylhexahydropyridazine-1-carbonyl)-7-methoxy-1-methyl-1H-benzo[d]imidazol-2-yl)-1-(cyclopropylmethyl)-1H-pyrrolo[2,3-b]pyridin-6-yl)ethyl)-2-fluoro-6-(trifluoromethyl)benzamide], the half-inhibitory concentration (IC50) was determined as 166 nM.

Still in this assay, the particulars now being: recombinant PAD4 5 nM, 2 mM calcium chloride, 3 mM BAEE substrate; geometric mean of multiple experiments.
Take `COc1cc(C(=O)N2C[C@H](N)[C@@H]3CC[C@H]2C3)cc2nc(-c3cc4ccc([C@@H](C)NC(=O)C5(F)CC5)nc4n3CC3CC3)n(C)c12` [Example 326, N-((R)-1-(2-(5-((1S,4R,5R)-4-amino-2-azabicyclo[3.2.1]octane-2-carbonyl)-7-methoxy-1-methyl-1H-benzo[d]imidazol-2-yl)-1-(cyclopropylmethyl)-1H-pyrrolo[2,3-b]pyridin-6-yl)ethyl)-1-fluorocyclopropane-1-carboxamide]: the IC50 stood at 103 nM. On the same count and under the same terms, in the case of `COc1cc(C(=O)N2C[C@H](N)[C@@H]3CC[C@H]2C3)cc2nc(-c3cc4ccc([C@@H](C)NC(=O)C5(C(F)F)CC5)nc4n3CC3CC3)n(C)c12` [Example 324, N-((R)-1-(2-(5-((1S,4R,5R)-4-amino-2-azabicyclo[3.2.1]octane-2-carbonyl)-7-methoxy-1-methyl-1H-benzo[d]imidazol-2-yl)-1-(cyclopropylmethyl)-1H-pyrrolo[2,3-b]pyridin-6-yl)ethyl)-1-(difluoromethyl)cyclopropane-1-carboxamide] it was 81.1 nM.

A word on the IC50: it is the concentration that gives 50% inhibition.
